Experimental data as given in publication PMC11820866, “Angiotensin-Converting Enzyme (ACE)-Inhibitor Activity of Novel Peptides Derived from Porcine Liver and Placenta” (Molecules, 2025).
Read-outs that look alike come from different tables or passages of the source. One block for each compound: values may come before it. Residues, ends and D or L forms follow the SMILES beside them. No end group written: not given here.

Assays:
ACE = tested on: ACE; parameters: method as in 14 sources, ref [13, 14] = [13]; PMID 16218651; doi:10.1021/jf0508908; 13. Vercruysse L. Van Camp J. Smagghe G. ACE inhibitory peptides derived from enzymatic hydrolysates of animal muscle protein: A review J. Agric. Food Chem. 2005 53 8106 8115 10.1021/jf0508908 1621865 || [14]; PMID 22061507; doi:10.1016/S0309-1740(00)00108-X; 14. Arihara K. Nakashima Y. Mukai T. Ishikawa S. Itoh M. Peptide inhibitors for angiotensin I-converting enzyme from enzymatic hydrolysates of porcine skeletal muscle proteins Meat Sci. 2001 57 319 32 ||| ref [13, 15] = [13]; PMID 16218651; doi:10.1021/jf0508908; 13. Vercruysse L. Van Camp J. Smagghe G. ACE inhibitory peptides derived from enzymatic hydrolysates of animal muscle protein: A review J. Agric. Food Chem. 2005 53 8106 8115 10.1021/jf0508908 1621865 || [15]; doi:10.1046/j.1344-3941.2003.00086.x; 15. Katayama K. Tomatsu M. Fuchu H. Sugiyama M. Kawahara S. Yamauchi K. Kawamura Y. Muguruma M. Purification and characterization of an angiotensin I-converting enzyme inhibitory peptide derived from ||| ref [16] = [16]; doi:10.1016/j.foodchem.2008.09.081; 16. Muguruma M. Ahhmed A.M. Katayama K. Kawahara S. Maruyama M. Nakamura T. Identification of pro-drug type ACE inhibitory peptide sourced from porcine myosin B: Evaluation of its antihypertensive eff ||| ref [17] = [17]; PMID 1368684; 17. Miyoshi S. Ishikawa H. Kaneko T. Fukui F. Tanaka H. Maruyama S. Structures and activity of angiotensin-converting enzyme inhibitors in an α-zein hydrolysate Agric. Biol. Chem. 1991 55 1313 1318 13 ||| ref [17, 18] = [17]; PMID 1368684; 17. Miyoshi S. Ishikawa H. Kaneko T. Fukui F. Tanaka H. Maruyama S. Structures and activity of angiotensin-converting enzyme inhibitors in an α-zein hydrolysate Agric. Biol. Chem. 1991 55 1313 1318 13 || [18]; PMID 16448176; doi:10.1021/jf051263l; 18. Wu J. Aluko R.E. Nakai S. Structural requirements of angiotensin i-converting enzyme inhibitory peptides: Quantitative structure−activity relationship study of di- and tripeptides J. Agric. Food C ||| ...; details: cited from earlier work; for IC50: porcine-derived peptides, literature, read-out: ACE Inhibition IC50; for ACE inhibition (in words): fish skin gelatine hydrolysate peptides, ref [26]
ACE from rabbit lung = biological target: T1, ACE from rabbit lung (Oryctolagus cuniculus, UniProt P12822); test: ACE-inhibition assay (modified Cushman and Cheung, HHL substrate, HPLC); format: biochemical; details: 0.5 mM HHL, TRIS pH 8.3, 37 °C 30 min, HPLC-UV 228 nm, calculated from % inhibition at 0.1, 1 (2) mM, this study
T1 construct: ACE from rabbit lung (purchased from Sigma Aldrich 2U equal to 1 mg of protein); purchased Sigma Aldrich; host or cells: rabbit lung
T1 sequence (P12822 34-1310): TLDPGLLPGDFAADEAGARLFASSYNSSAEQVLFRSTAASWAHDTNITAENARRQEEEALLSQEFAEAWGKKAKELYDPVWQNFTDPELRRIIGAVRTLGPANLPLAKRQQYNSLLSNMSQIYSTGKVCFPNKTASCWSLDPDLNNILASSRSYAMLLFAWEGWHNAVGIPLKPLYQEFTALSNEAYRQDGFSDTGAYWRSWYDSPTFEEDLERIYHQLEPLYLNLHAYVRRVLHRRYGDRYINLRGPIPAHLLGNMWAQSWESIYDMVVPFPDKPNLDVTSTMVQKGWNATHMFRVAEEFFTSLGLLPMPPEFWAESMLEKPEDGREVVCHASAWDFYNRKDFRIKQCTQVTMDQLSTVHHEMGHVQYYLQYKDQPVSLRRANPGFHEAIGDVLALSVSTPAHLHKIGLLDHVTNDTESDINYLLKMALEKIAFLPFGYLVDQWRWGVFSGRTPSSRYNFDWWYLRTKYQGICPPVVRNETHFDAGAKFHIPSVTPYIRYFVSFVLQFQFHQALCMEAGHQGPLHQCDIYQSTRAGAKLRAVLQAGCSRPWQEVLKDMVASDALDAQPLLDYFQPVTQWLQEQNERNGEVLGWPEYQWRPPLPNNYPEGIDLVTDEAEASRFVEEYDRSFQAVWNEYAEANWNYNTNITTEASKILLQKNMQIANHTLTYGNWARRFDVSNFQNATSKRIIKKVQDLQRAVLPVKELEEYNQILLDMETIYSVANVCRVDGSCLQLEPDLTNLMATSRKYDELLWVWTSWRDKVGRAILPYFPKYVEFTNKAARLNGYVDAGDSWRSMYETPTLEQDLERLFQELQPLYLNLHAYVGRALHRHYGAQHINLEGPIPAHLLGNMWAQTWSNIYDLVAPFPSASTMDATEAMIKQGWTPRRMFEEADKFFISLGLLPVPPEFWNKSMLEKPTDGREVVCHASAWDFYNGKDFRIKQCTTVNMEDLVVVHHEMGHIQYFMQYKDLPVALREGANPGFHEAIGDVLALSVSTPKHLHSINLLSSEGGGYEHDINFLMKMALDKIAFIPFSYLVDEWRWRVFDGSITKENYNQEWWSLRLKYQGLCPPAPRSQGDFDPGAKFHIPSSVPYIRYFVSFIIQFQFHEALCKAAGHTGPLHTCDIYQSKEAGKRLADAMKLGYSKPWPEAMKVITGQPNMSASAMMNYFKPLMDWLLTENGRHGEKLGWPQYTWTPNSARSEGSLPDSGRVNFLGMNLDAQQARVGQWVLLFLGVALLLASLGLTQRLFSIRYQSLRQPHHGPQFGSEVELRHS

[1] = Solubility of synthetic peptides in aqueous solution; format: physicochemical; details: in words; stocks 10 mM in deionised water
Procedure: Based on the in silico activity prediction, four synthetic peptides were ordered from Peptide Synthetics (Protein Peptide Research Ltd., Fareham, UK). They were supplied as 10 mg aliquots of lyophilised powders. The synthetic peptides were dissolved in deionised water to produce 10 mM stock solutions: • FWG: 10 mg/mL = 24.48 mM therefore 10 mM = 4.085 mg/mL • MFLG: 10 mg/mL = 21.43 mM therefore10 mM = 4.666 mg/mL • […]: 10 mg/mL = 10.75 mM therefore 10 mM = 9.302 mg/mL • FFNDA: 10 mg/mL = 16.32 mM or10 mM = 6.127 mg/mL

Compound: PTPVP [literature porcine peptide, titin]
- IC50 (ACE; ref [20],[24]): 256 µM

- IC50 (ACE from rabbit lung): 1.16 mM
- Solubility in aqueous solution [1]: perhaps less soluble
Compound: SDPPLVFVG

Compound: GIPGAP [peptide from hydrolysates of thornback ray skin]
- ACE inhibition (in words) (ACE): most active ACE inhibitor

Compound: KAPVA [literature porcine peptide, titin]
- IC50 (ACE; ref [20],[24]): 47 µM

- IC50 (ACE from rabbit lung): 0.83 mM
- Solubility in aqueous solution [1]: perhaps less soluble
Compound: FFNDA [FFNDA]

Compound: VKKVLGNP [literature porcine peptide, myosin (light chain)]
- IC50 (ACE; ref [20],[21]): 29 µM

Compound: MNPPK [literature porcine peptide, myosin]
- IC50 (ACE; ref [13],[14]): 946 µM

Compound: VLAQYK [peptide derived from meat waste]
- ACE-inhibitory activity (in words) (ACE; peptide derived from meat waste, ref [7]): greatest ACE-inhibitory activity

Compound: VKAGF [literature porcine peptide, actin]
- IC50 (ACE; ref [16]): 20 µM

Compound: RMLGQTPTK [literature porcine peptide, troponin C]
- IC50 (ACE; ref [13],[15]): 34 µM

- IC50 (ACE from rabbit lung): 0.07 mM
- Solubility in aqueous solution [1]: readily soluble in aqueous solution
Compound: CSCC[C@H](N)C(=O)N[C@@H](Cc1ccccc1)C(=O)N[C@@H](CC(C)C)C(=O)NCC(=O)O [MFLG] (H-MFLG-OH)

Compound: ITTNP [literature porcine peptide, myosin]
- IC50 (ACE; ref [13],[14]): 549 µM

Compound: KRVITY [literature porcine peptide, myosin]
- IC50 (ACE; ref [16]): 6 µM

Compound: RMLGQTP [literature porcine peptide, troponin C]
- IC50 (ACE; ref [13],[15]): 503 µM

Compound: KRQKYDI [literature porcine peptide, troponin]
- IC50 (ACE; ref [17],[20]): 27 µM

Compound: LLMLDNDLPP
- ACE inhibition (in words) (ACE): potent non-competitive ACE inhibition
